Our source for the mass density values is the NIST ThermoML archive (doi:10.1021/acs.jced.5b00154).

For this series the following is noted: 101.33 kPa, Liquid, Vibrating tube method.

Numbers after ± are expanded uncertainties.

`[2H]O[2H]` [water-d2]: the mass density by setting is: (278.15 K) 1105.53 ± 0.08 kg/m3; (288.15 K) 1105.77 ± 0.08 kg/m3; (298.15 K) 1104.36 ± 0.079 kg/m3; (308.15 K) 1101.63 ± 0.079 kg/m3; (318.15 K) 1097.84 ± 0.078 kg/m3.

By mass density is commonly meant the mass of a sample divided by its volume.
